Test results as given in patent publication US9266848B2, “4-alkoxy-N-(2-hydroxycarbamoyl-2-piperidinyl-ethyl)-benzamide compounds as selective TACE-inhibitors for the treatment of inflammatory diseases” (GALDERMA RESEARCH & DEVELOPMENT, priority 2009, dated 2016).
pIC50: −log10 of the molar value.

Key:
TACE enzyme = TACE enzyme (Homo sapiens, UniProt P78536); experiment: Enzymatic test of TACE inhibition; type: biochemical
MMP1 = MMP1 (Homo sapiens (Human), UniProt P03956); experiment: Selectivity test MMP1; type: biochemical
MMP1, sequence (P03956 100-469, species assumed): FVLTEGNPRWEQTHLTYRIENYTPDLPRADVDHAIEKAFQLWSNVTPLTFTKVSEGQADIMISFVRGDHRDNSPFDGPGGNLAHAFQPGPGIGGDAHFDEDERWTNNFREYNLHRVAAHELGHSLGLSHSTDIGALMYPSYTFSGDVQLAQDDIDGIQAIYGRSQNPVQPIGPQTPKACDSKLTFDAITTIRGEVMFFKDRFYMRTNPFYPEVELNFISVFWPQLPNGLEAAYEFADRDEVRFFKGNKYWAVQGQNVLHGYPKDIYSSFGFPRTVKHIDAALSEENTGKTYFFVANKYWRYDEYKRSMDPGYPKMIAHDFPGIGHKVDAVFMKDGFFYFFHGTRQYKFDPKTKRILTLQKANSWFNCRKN

ADAM10 = ADAM10 (Homo sapiens (Human), UniProt O14672); experiment: Selectivity test ADAM10; type: biochemical
ADAM10, sequence (O14672 214-748, species assumed): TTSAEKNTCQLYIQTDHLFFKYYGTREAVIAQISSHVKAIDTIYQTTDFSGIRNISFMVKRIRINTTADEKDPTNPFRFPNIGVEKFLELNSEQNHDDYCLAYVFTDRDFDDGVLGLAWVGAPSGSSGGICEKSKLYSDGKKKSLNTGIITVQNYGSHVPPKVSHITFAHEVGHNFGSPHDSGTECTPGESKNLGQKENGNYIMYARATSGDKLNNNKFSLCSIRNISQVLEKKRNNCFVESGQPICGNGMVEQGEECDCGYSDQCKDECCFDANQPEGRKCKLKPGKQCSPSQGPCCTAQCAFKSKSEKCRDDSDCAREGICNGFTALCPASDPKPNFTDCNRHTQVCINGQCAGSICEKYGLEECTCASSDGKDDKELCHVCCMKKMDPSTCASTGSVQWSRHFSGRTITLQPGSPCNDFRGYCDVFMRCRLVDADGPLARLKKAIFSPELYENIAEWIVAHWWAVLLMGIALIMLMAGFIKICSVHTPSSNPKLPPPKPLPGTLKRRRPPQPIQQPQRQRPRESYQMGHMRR

MMP3 = MMP3 (Homo sapiens (Human), UniProt P08254); experiment: Selectivity test MMP3; type: biochemical
MMP3, sequence (P08254 100-477, species assumed): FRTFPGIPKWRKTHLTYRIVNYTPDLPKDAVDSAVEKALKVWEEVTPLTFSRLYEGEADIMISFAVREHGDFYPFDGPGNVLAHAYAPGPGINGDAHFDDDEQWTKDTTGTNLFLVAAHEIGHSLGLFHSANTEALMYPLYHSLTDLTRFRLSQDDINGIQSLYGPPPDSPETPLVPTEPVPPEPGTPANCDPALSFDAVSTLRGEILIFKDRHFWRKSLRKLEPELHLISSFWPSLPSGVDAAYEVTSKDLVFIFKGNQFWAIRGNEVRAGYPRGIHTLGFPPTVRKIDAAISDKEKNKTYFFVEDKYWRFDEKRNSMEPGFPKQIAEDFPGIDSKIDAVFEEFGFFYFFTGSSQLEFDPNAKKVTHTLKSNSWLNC

TACE enzyme, sequence (P78536 215-824 limits assumed): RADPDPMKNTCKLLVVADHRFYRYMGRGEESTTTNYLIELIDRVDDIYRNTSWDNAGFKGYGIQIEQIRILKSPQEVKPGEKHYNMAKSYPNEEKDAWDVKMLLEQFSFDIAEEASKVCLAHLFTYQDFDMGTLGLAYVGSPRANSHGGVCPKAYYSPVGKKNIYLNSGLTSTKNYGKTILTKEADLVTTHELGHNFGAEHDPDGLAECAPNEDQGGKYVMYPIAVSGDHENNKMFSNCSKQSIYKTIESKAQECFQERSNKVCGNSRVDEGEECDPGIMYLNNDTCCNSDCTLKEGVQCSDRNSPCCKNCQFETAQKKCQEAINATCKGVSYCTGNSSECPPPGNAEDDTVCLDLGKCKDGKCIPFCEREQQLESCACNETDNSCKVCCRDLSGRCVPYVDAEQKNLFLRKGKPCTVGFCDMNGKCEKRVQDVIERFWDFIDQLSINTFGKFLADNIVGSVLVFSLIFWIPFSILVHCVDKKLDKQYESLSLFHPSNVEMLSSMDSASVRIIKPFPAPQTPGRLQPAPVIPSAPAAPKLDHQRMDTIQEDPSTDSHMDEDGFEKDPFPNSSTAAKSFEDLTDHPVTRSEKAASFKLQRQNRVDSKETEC

Compound | % TACE inhibition at 10 μM (TACE enzyme) [%] | pIC50 (TACE enzyme; fluorescent substrate 40 μM) | pIC50 (TACE enzyme; selectivity table) | pIC50 (MMP1) | pIC50 (ADAM10) | pIC50 (MMP3) | melting point [°C]
CC#CCOc1ccc(C(=O)NC[C@@H](C(=O)NO)N2CCCCC2)cc1 [Example 1, 4-but-2-ynyloxy-N—((S)-2-hydroxycarbamoyl-2-piperidin-1-ylethyl)benzamide] | 96 | 8.05 |  |  |  |  | 
O=C(NC[C@@H](C(=O)NO)N1CCCCC1)c1ccc(OCc2ccnc(-c3ccccc3)c2)cc1 [Example 4, N—((S)-2-hydroxycarbamoyl-2-piperidin-1-yl-ethyl)-4-(2-phenylpyridin-4-ylmethoxy)benzamide] | 100 |  |  |  |  |  | 
O=C(NC[C@@H](C(=O)NO)N1CCCCC1)c1ccc(OCc2ccncc2)cc1 [Example 5, N—((S)-2-hydroxycarbamoyl-2-piperidin-1-yl-ethyl)-4-(pyridin-4-ylmethoxy)benzamide] | 93 | 6.97 | 6.97 |  | 5.51 | 5.21 | 
O=C(NC[C@@H](C(=O)NO)N1CCOCC1)c1ccc(OCc2ccnc(-c3ccccc3C(F)(F)F)c2)cc1 [Example 10, N—((S)-2-hydroxycarbamoyl-2-morpholin-4-ylethyl)-4-[2-(2-trifluoromethylphenyl)pyridin-4-yl-methoxy]benzamide] | 90 | 6.05 |  |  |  |  | 

The next lines start with the values.

% TACE inhibition at 10 μM (TACE enzyme) [%] | pIC50 (TACE enzyme; fluorescent substrate 40 μM) | pIC50 (TACE enzyme; selectivity table) | pIC50 (MMP1) | pIC50 (ADAM10) | pIC50 (MMP3) | melting point [°C] | Compound
100 | 7.15 | 7.15 | 5.00 | 5.19 |  |  | Cc1cc(COc2ccc(C(=O)NC[C@@H](C(=O)NO)N3CCCCC3)cc2)c2ccccc2n1 [Example 2, N—((S)-2-hydroxycarbamoyl-2-piperidin-1-yl-ethyl)-4-(2-methylquinolin-4-ylmethoxy)benzamide]
97 | 6.59 |  |  |  |  |  | O=C(NC[C@@H](C(=O)NO)N1CCCCC1)c1ccc(OCc2cc(Cl)nc(Cl)c2)cc1 [Example 3, 4-(2,6-dichloropyridin-4-ylmethoxy)-N—((S)-2-hydroxycarbamoyl-2-piperidin-1-ylethyl)benzamide]
90 | 7.04 |  |  |  |  |  | Cc1ccc(COc2ccc(C(=O)NC[C@@H](C(=O)NO)N3CCCCC3)cc2)c2ccccc12 [Example 7, N—((S)-2-hydroxycarbamoyl-2-piperidin-1-yl-ethyl)-4-(4-methylnaphthalen-1-ylmethoxy)benzamide]
91 |  |  |  |  |  | 150 | O=C(NC[C@@H](C(=O)NO)N1CCCCC1)c1ccc(OCc2ccnc(Br)c2)cc1 [Example 8, 4-(2-bromopyridin-4-ylmethoxy)-N—((S)-2-hydroxycarbamoyl-2-piperidin-1-ylethyl)benzamide]
92 | 6.37 |  |  |  |  |  | O=C(NC[C@@H](C(=O)NO)N1CCOCC1)c1ccc(OCc2ccncc2)cc1 [Example 9, N—((S)-2-hydroxycarbamoyl-2-morpholin-4-ylethyl)-4-(pyridin-4-ylmethoxy)benzamide]
91 | 6.63 | 6.63 |  |  |  |  | CCN(CC)[C@@H](CNC(=O)c1ccc(OCc2cc(C)nc3ccccc23)cc1)C(=O)NO [Example 11, N—((S)-2-diethylamino-2-hydroxycarbamoyl-ethyl)-4-(2-methylquinolin-4-ylmethoxy)benzamide]
